Measured values published in patent publication US4851209A, “Diagnostic procedures using radio labeled sucralfate and derivatives or precursors thereof” (The Regents of the University of California, priority 1985, dated 1989).

Columns and labels:
pepsin = conditions: cited from earlier work
duodenal ulcers = conditions: several clinical trials; cited from earlier work
[1] = tested on: duodenal and gastric ulcers, gastric erosions, mucosa; conditions: cited from earlier work
[2] = stability of tagged material in solution; assay type: physicochemical; conditions: one gram per 10 cc of normal saline
Description: The tagged material was stable in a solution comprising one gram per 10 cc of normal saline. The solution was given orally as a 10 cc dose. […] A good analogy would be the stars at night vs. the stars during the day. The stars are there in both instances. However, the sky is so bright during the day that star-light is simply lost in the background. […] The potassium salt used for imaging ulcers in Example III can be replaced by other cations compatible in the human body including alkali metal and alkaline earth metal cations such as sodium and calcium.

Substance	inhibition of the action of pepsin (pepsin)	safety and efficacy in healing duodenal ulcers (duodenal ulcers)	binding to ulcerated areas in the upper G. I. tract ([1]; FDA approved drug)	duration of action ([1]; animal data)	binding to uninjured mucosa ([1]; compared with defective mucosa)	binding to duodenal and gastric ulcers and to gastric erosions ([1]; erosions produced by ethanol and anti-inflammatory drugs)	stability in solution [2]
Sucralfate	inhibits the action of pepsin	shown the safety and efficacy	bind selectively to ulcerated areas	sustained	to a much lesser extent	binds to duodenal and gastric ulcers and to gastric erosions	
potassium sucrose sulfate [Tc-99m labeled potassium sucrose sulfate]							stable
